Values after ≈ are worked out from the molar mass of the structure shown.
Assays:
[1] = molecular target: recombinant LpxA enzyme (E. coli) (Escherichia coli, UniProt P0A722); assay: LpxA in vitro substrate acylation assay with RapidFire MS analysis (E. coli); format: biochemical
Method: (§1) Exemplary compounds from the above Examples were tested for ability to inhibit LpxA activity using an in vitro substrate acylation assay with RapidFire™ MS analysis. Assay procedures and results are described below.
(§2) Reactions were carried out in a final volume of 30 μL with 25 mM HEPES (pH 7.3), 150 mM NaCl, 2 mM DTT, 0.01% BSA, 5 μM UDP-GlcNac, recombinant LpxA enzyme (0.5 nM P. aeruginosa or 1.0 nM E. coli, both produced at Evotec), 0.5 μM acyl-transfer reagent (decanoyl P. aeruginosa acyl-carrier protein [PaACP-C10] or myristoyl E. coli acyl-carrier protein [EcACP-C1-4], both produced at Evotec), and 1% DMSO containing test compound. After 30 min incubation at room temperature, reactions were stopped by addition of 30 μL of 10% TCA in water.
(§3) Samples were centrifuged (4350 rpm, 4° C., 5 min), and then subjected to RapidFire™ MS analysis on an Agilent RapidFire 300 coupled to an Agilent 6460 triple-quadrupole mass spectrometer. Analytes were retained on a C4 (type A) cartridge using the following solvents and flow rates: • Pump 1—H2O with 5 mM NH4OAc at 2.0 mL/min, • Pump 2—MeOH/H2O (90/10) at 1.5 mL/min, • Pump 3—MeOH/H2O (90/10) at 0.5 mL/min, and • Pump 4—ACN (organic)/H2O (aqueous). Substrate and product of the reaction were detected in negative mode ESI-MS/MS by MRM (multiple reaction monitoring) of transitions 606.0/385.0 (UDP-GlcNAc substrate) and 776.2/385.0 (UDP-3-O—(R-3-hydroxydecanoyl)-GlcNAc product, for P. aeruginosa LpxA assay) or 832.2/385.0 (UDP-3-O—(R-3-hydroxymyristoyl)-GlcNAc product, for E. coli LpxA assay).
(§4) For IC50 determinations, peak areas of the substrate and product were compared to compute the proportion of product formed by the LpxA enzyme at each compound concentration.

[2] = tested on: Wild-type P. aeruginosa PAO1; assay: Broth microdilution MIC, wild-type P. aeruginosa PAO1; format: cell-based; details: Pseudomonas aeruginosa; wild-type P. aeruginosa PAO1, 37° C., 18 h; read-out: PAO1 WT MIC
[3] = tested on: P. aeruginosa PAO397; assay: Broth microdilution MIC, P. aeruginosa PAO397; format: cell-based; details: Pseudomonas aeruginosa, PAO397, 18 h, read-out: PAO397 KO MIC
[4] = molecular target: T1, recombinant LpxD enzyme (P. aeruginosa) (Pseudomonas aeruginosa, UniProt Q9HXY6); assay: LpxD in vitro substrate acylation assay with RapidFire MS analysis (P. aeruginosa); format: biochemical; details: P. aeruginosa enzyme 10 nM, EcACP-C10, 120 min
T1 sequence (Q9HXY6 1-353): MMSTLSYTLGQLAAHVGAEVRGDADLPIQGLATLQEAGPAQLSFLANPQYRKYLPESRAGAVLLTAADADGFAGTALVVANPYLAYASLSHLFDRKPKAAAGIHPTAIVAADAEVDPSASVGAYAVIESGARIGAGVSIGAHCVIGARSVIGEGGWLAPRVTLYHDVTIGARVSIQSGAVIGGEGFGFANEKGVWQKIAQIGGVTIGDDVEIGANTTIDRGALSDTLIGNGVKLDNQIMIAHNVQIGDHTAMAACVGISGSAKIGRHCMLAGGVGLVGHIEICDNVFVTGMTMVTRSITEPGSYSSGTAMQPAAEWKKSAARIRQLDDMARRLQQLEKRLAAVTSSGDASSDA
Method: Exemplary compounds from the above Examples were tested for ability to inhibit LpxD activity using an in vitro substrate acylation assay with RapidFire™ MS analysis. Assay procedures and results are described below.
Reactions were carried out in a final volume of 30 μL with 25 mM HEPES (pH 7.3), 150 mM NaCl, 2 mM DTT, 0.01% BSA, 5 μM UDP-3-O[R-3-Hydroxymyristoyl]-glucosamine (produced at Charles River according to literature procedures, and partially purified at Evotec), 10 nM recombinant LpxD enzyme (P. aeruginosa or E. coli, produced at Evotec), 1 μM decanoyl E. coli acyl-carrier protein (EcACP-C10, produced at Evotec), and 1% DMSO containing test compound. After 120 min incubation at room temperature, reactions were stopped by addition of 30 μL of 10% TCA in water.
as §3, with “790.3/385.0 (UDP-3-O[R-3-Hydroxymyristoyl]-glucosamine” for “606.0/385.0 (UDP-GlcNAc”, “960.4/385.0 (UDP-3-O—[R-3-Hydroxymyristoyl]-N—[R-3-hydroxydecanoyl]-glucosamine product).” for “776.2/385.0 (UDP-3-O—(R-3-hydroxydecanoyl)-GlcNAc product, for P. aeruginosa LpxA assay) or 832.2/385.0 (UDP-3-O—(R-3-hydroxymyristoyl)-GlcNAc product, for E. coli LpxA assay).”
For IC50 determinations, peak areas of the substrate and product were compared to compute the proportion of product formed by the LpxD enzyme at each compound concentration. The fractional activity was converted to percentage inhibition and plotted against compound concentration in Evotec's proprietary platform Aplus and fit using a four-parameter logistic using non-linear regression to yield the IC50 value.

[5] = molecular target: T2, recombinant LpxA enzyme (P. aeruginosa) (Pseudomonas aeruginosa, UniProt Q9X6P4); assay: LpxA in vitro substrate acylation assay with RapidFire MS analysis (P. aeruginosa); format: biochemical; details: P. aeruginosa enzyme 0.5 nM, PaACP-C10, 30 min
T2 sequence (Q9X6P4 1-258): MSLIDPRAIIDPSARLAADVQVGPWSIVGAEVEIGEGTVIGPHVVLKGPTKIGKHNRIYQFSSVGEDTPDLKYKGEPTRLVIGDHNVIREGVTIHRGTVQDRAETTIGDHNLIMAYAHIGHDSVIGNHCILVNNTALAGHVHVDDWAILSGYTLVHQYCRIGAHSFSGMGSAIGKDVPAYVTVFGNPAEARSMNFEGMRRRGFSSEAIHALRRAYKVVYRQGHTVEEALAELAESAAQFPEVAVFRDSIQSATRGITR
Method: as §1, §2, §3, §4

[6] = tested on: P. aeruginosa PAO1 ΔmexABoprM; assay: Broth microdilution MIC, P. aeruginosa PAO1 ΔmexABoprM; format: cell-based; details: Pseudomonas aeruginosa, PAO1, 18 h, read-out: PAO1 KO MIC
[7] = tested on: E. coli JW0452-3 (BW25113 JacrA::kan); assay: Broth microdilution MIC, E. coli JW0452-3; format: cell-based; details: Escherichia coli, BW25113, 18 h, read-out: E. coli KO MIC
Method: Exemplary compounds from the above Examples were tested to determine their minimum inhibitory concentration (MIC) for exemplary strains of Escherichia and Pseudomonas bacteria using broth microdilution methods. Assay procedures and results are described below.
Broth microdilution assays were conducted according to Clinical and Laboratory Standards Institute guidelines (CLSI, M07-A^11: Clinical and Laboratory Standards Institute. Methods for Dilution Antimicrobial Susceptibility Tests for Bacteria that Grow Aerobically; Approved Standard-11th Edition. Wayne, PA: CLSI, 2018). Briefly, bacterial suspensions were adjusted to a density equivalent to a 0.5 McFarland standard and diluted in sterile, cation-adjusted Mueller-Hinton broth (Beckton Dickinson) to yield a final inoculum between 2×10^5 and 8×10^5 colony-forming units (CFU)/mL. An inoculum volume of 98 μL was added to wells containing 2 μL of 2-fold serial dilutions of drug (prepared in DMSO). All inoculated microdilution trays were incubated in ambient air at 37° C. for 18 h. […] Performance of the assay was monitored by the use of laboratory quality-control strains (S. aureus ATCC 29213 and P. aeruginosa ATCC 27853) and levofloxacin, a compound with a defined MIC spectrum, in accordance with CLSI guidelines (CLSI, M100Ed29: Clinical and Laboratory Standards Institute. Performance Standards for Antimicrobial Susceptibility Testing, 29th Edition. Wayne, PA: CLSI, 2018).
Multiple enterobacteriaceae strains were tested, including both wild-type strains and multi-drug resistance pump deficient mutants. Specific strains tested included the following: • Wild-type P. aeruginosa PAO1, • P. aeruginosa PAO1 ΔmexABoprM—Disabled multi-drug efflux system Δ(MexAB-OprM), • P. aeruginosa PAO397—PAO1Δ(mexAB-oprM) Δ(mexCD-oprJ) Δ(mexEF-oprN) Δ(mexJK) Δ(mexXY) ΔopmH, • P. aeruginosa LESB58—Clinical isolate; colistin-resistant, isolated in the United Kingdom in 1988 from a patient with cystic fibrosis • E. coli JW0452-3 (BW25113 JacrA::kan)—Disabled multi-drug efflux system (AcrAB-TolC). […]

[8] = tested on: P. aeruginosa LESB58; assay: Broth microdilution MIC, P. aeruginosa LESB58; format: cell-based; details: Pseudomonas aeruginosa; P. aeruginosa LESB58 clinical isolate, colistin-resistant, 37° C., 18 h

Chain of recombinant LpxA enzyme (E. coli) (P0A722 whole entry): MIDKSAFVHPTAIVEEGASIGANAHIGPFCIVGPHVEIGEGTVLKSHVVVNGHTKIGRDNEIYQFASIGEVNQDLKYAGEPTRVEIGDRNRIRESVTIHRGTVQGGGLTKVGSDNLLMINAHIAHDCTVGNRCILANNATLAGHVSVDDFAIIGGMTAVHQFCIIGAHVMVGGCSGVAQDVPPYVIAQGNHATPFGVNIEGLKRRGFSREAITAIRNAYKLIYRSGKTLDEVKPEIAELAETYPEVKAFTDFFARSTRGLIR

Row | SMILES | IC50 [1] [µM] | MIC [2] [µg/mL] | MIC [3] [µg/mL] | IC50 [4] [µM] | IC50 [5] [µM] | MIC [6] [µg/mL] | MIC [7] [µg/mL] | MIC [8] [µg/mL]
1 | N#Cc1ccc(CN(CC(=O)N2CCOCC2)C(=O)CSc2ccccc2Cl)cc1 [Compound No. 2] | > 20 | > 64 | 16 to 64 (≈ 36 to 144 µM) | > 20 | > 1 | – | – | –
2 | CN1CC(NC(=O)CN(Cc2ccc(C#N)cc2)C(=O)CSc2ccccc2Cl)C1 [Compound No. 6] | – | > 64 | 1 to 16 (≈ 2.26 to 36.1 µM) | > 20 | > 1 | – | – | –
3 | N#Cc1ccc(CN(C(=O)CSc2ccccc2Cl)[C@@H](CO)c2nnc(N)o2)cn1 [Compound No. 8, 2-(2-Chlorophenyl)sulfanyl-N-[(6-cyano-3-pyridyl)methyl]-N-[(1S)-1-(5-amino-1,3,4-oxadiazol-2-yl)-2-hydroxy-ethyl]acetamide] | > 20 | > 64 | < 1 | – | < 0.02 | 1 to 16 (≈ 2.25 to 36 µM) | – | –
4 | Nc1nnc(CN(Cc2ccc(OC3CCOCC3)cc2)C(=O)CSc2ccccc2Cl)o1 [Compound No. 11] | > 20 | – | < 1 | – | 0.1 to 1 | 1 to 16 (≈ 2.05 to 32.7 µM) | – | –
5 | N#Cc1ccc(CN(Cc2nnc(N)o2)C(=O)CSc2cc(-c3c[nH]cn3)ccc2Cl)c(F)c1 [Compound No. 62, N-[(5-Amino-1,3,4-oxadiazol-2-yl)methyl]-2-[2-chloro-5-(1H-imidazol-4-yl)phenyl]sulfanyl-N-[(4-cyano-2-fluoro-phenyl)methyl]acetamide] | 5 to 20 | > 64 | 1 to 16 (≈ 2.01 to 32.1 µM) | – | 0.1 to 1 | – | 16 to 64 (≈ 32.1 to 129 µM) | –
6 | N#Cc1ccc(CN(CC(=O)NC2CNC2)C(=O)CSc2ccccc2Cl)cc1 [compound 5] | – | > 64 | 16 to 64 (≈ 37.3 to 149 µM) | > 20 | 0.1 to 1 | – | 16 to 64 (≈ 37.3 to 149 µM) | –
7 | N#Cc1ccc(CN(Cc2nnc(N)o2)C(=O)CCc2ccccc2Cl)cn1 [compound 16] | > 20 | > 64 | 1 to 16 (≈ 2.52 to 40.3 µM) | – | 0.1 to 1 | 16 to 64 (≈ 40.3 to 161 µM) | – | –
8 | CS(=O)(=O)Nc1ccc(CN(Cc2nnc(N)o2)C(=O)CSc2ccccc2Cl)cc1 [compound 46] | > 20 | > 64 | 1 to 16 (≈ 2.07 to 33.2 µM) | – | 0.02 to 0.1 | > 64 | 16 to 64 (≈ 33.2 to 133 µM) | –
9 | Nc1nnc(CN(Cc2ccc(S(N)(=O)=O)cc2)C(=O)CSc2cc(F)cc(F)c2Cl)o1 [compound 59] | > 20 | > 64 | < 1 | – | < 0.02 | 1 to 16 (≈ 1.98 to 31.7 µM) | – | 16 to 64 (≈ 31.7 to 127 µM)
10 | NC(=O)c1ccc(CN(Cc2nnc(N)o2)C(=O)CSc2ccccc2Cl)cc1 [compound 76] | > 20 | > 64 | 1 to 16 (≈ 2.32 to 37 µM) | – | 0.1 to 1 | 16 to 64 (≈ 37 to 148 µM) | – | –
